Assays:
[1] = molecular target: HSA (Homo sapiens, UniProt P02768); test: HSA binding by RIAC method (gel filtration, apparent molecular weight); type: in vitro ADME; conditions: HSA binding as apparent molecular weight, 700 μM HSA in PBS mobile phase
Procedure: A gel filtration column Superdex 75 Increase 10/300 GL (GE Healthcare, Uppsala, Sweden) was beforehand calibrated following the producer's recommendations with a commercially available gel filtration calibration kit (GE Healthcare, Buckinghamshire, UK) comprising conalbumin (MW: 75 kDa), ovalbumin (44 kDa), carbonic anhydrase (29 kDa), ribonuclease A (13.7 kDa) and aprotinin (6.5 kDa) as reference proteins of known molecular weight. AMSEC experiments were conducted using a constant flow rate of 0.8 mL/min at rt. A solution of HSA in PBS at physiological concentration (700 μM) was used as the mobile phase. SST2 ligands were labelled as described with molar activities of 10-20 GBq/μmol. Probes of 1.0 MBq of the radioligand were injected directly from the labelling solution. HSA binding was expressed as an apparent molecular weight MW calculated from the retention time of the radioligand using the determined calibration curve.
For evaluation, experimentally determined retention times tR are first converted into elution volumes Ve by multiplying with the flow rate and thereafter converted into partition coefficients Kav following the equation
where V0 is the column void volume (8.027 mL) and Vc is the geometric column volume (24 mL). Using the equation given by the trend line plot of the column calibration
the apparent molecular weight MW is calculated as […]

[2] = Octanol-water distribution coefficient (logD pH 7.4) of the labeled tracer; type: physicochemical; conditions: n-octanol/PBS pH 7.4, room temperature
Method in brief: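 About 1 MBq tracer partitioned in 1:1 PBS pH 7.4/n-octanol, mixed 3 min at room temperature, centrifuged 15000 g for 5 min. Both layers counted by gamma counter; at least six repeats.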

Chain of HSA (P02768 25-609): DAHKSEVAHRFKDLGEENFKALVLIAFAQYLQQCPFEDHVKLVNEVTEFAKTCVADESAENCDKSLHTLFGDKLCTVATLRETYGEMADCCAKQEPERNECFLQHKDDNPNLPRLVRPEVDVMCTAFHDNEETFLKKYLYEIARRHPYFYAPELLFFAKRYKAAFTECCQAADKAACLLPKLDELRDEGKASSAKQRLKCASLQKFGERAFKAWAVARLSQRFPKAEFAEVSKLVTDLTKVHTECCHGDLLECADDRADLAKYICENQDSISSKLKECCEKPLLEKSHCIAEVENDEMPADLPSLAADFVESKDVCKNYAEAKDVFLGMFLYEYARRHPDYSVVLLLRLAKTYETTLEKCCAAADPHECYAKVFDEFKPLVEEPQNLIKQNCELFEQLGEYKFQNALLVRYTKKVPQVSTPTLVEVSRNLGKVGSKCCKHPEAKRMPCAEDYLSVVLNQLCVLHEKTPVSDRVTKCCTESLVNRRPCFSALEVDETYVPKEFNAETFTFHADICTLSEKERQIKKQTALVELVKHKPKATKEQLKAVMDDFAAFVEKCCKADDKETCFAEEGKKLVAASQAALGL

C[C@@H](O)[C@H](NC(=O)C1CSSCC(NC(=O)C(Cc2ccccc2)NC(=O)[C@@H](CC(N)=O)NC(=O)C(CC(N)=O)NC(=O)[C@@H](CC(=O)O)NC(=O)C(CC(=O)O)NC(=O)[C@@H](CNC(=O)CN2CCN(CC(=O)O)CCN(CC(=O)O)CCN(CC(=O)O)CC2)NC(=O)C[N+](C)(C)Cc2ccc([Si](F)(C(C)(C)C)C(C)(C)C)cc2)C(=O)N[C@@H](Cc2ccc(O)cc2)C(=O)NC(Cc2c[nH]c3ccccc23)C(=O)N[C@@H](CCCCN)C(=O)N[C@@H]([C@@H](C)O)C(=O)N1)C(=O)O (stereo partly drawn) [[Ga]48]
HSA [1]: 8.11 kDa
LogDpH=7.4 [2]: −2.10 ± 0.05

C[C@@H](O)[C@H](NC(=O)C1CSSCC(NC(=O)C(Cc2ccccc2)NC(=O)CNC(=O)CNC(=O)CNC(=O)C(CC(=O)O)NC(=O)[C@@H](CC(=O)O)NC(=O)C(CNC(=O)CN2CCN(CC(=O)O)CCN(CC(=O)O)CCN(CC(=O)O)CC2)NC(=O)[C@@H](CN)NC(=O)C[N+](C)(C)Cc2ccc([Si](F)(C(C)(C)C)C(C)(C)C)cc2)C(=O)N[C@@H](Cc2ccc(O)cc2)C(=O)NC(Cc2c[nH]c3ccccc23)C(=O)N[C@@H](CCCCN)C(=O)N[C@@H]([C@@H](C)O)C(=O)N1)C(=O)O (stereo partly drawn) [[Lu]51]
HSA [1]: 8.84 kDa
LogDpH=7.4 [2]: −1.71 ± 0.05

C[C@@H](O)[C@H](NC(=O)C1CSSCC(NC(=O)C(Cc2ccccc2)NC(=O)[C@@H](CC(N)=O)NC(=O)C(CC(N)=O)NC(=O)CNC(=O)C(CC(=O)O)NC(=O)[C@@H](CC(=O)O)NC(=O)C(CNC(=O)CN2CCN(CC(=O)O)CCN(CC(=O)O)CCN(CC(=O)O)CC2)NC(=O)C[N+](C)(C)Cc2ccc([Si](F)(C(C)(C)C)C(C)(C)C)cc2)C(=O)N[C@@H](Cc2ccc(O)cc2)C(=O)NC(Cc2c[nH]c3ccccc23)C(=O)N[C@@H](CCCCN)C(=O)N[C@@H]([C@@H](C)O)C(=O)N1)C(=O)O (stereo partly drawn) [[Ga]49]
HSA [1]: 7.26 kDa
LogDpH=7.4 [2]: −2.16 ± 0.03

C[C@@H](O)[C@H](NC(=O)C1CSSCC(NC(=O)C(Cc2ccccc2)NC(=O)CNC(=O)CNC(=O)CNC(=O)C(CC(=O)O)NC(=O)[C@@H](CC(=O)O)NC(=O)C(CNC(=O)CN2CCN(CC(=O)O)CCN(CC(=O)O)CCN(CC(=O)O)CC2)NC(=O)[C@@H](CN)NC(=O)CNC(=O)C[N+](C)(C)Cc2ccc([Si](F)(C(C)(C)C)C(C)(C)C)cc2)C(=O)N[C@@H](Cc2ccc(O)cc2)C(=O)NC(Cc2c[nH]c3ccccc23)C(=O)N[C@@H](CCCCN)C(=O)N[C@@H]([C@@H](C)O)C(=O)N1)C(=O)O (stereo partly drawn) [[Lu]52]
HSA [1]: 8.47 kDa
LogDpH=7.4 [2]: −1.88 ± 0.05

C[C@@H](O)[C@H](NC(=O)C1CSSCC(NC(=O)C(Cc2ccccc2)NC(=O)CNC(=O)CNC(=O)CNC(=O)C(CC(=O)O)NC(=O)[C@@H](CC(=O)O)NC(=O)C(CNC(=O)CN2CCN(CC(=O)O)CCN(CC(=O)O)CCN(CC(=O)O)CC2)NC(=O)[C@@H](CN)NC(=O)CNC(=O)CNC(=O)C[N+](C)(C)Cc2ccc([Si](F)(C(C)(C)C)C(C)(C)C)cc2)C(=O)N[C@@H](Cc2ccc(O)cc2)C(=O)NC(Cc2c[nH]c3ccccc23)C(=O)N[C@@H](CCCCN)C(=O)N[C@@H]([C@@H](C)O)C(=O)N1)C(=O)O (stereo partly drawn) [[Lu]53]
HSA [1]: 9.81 kDa
LogDpH=7.4 [2]: −1.74 ± 0.03

C[C@@H](O)[C@H](NC(=O)C1CSSCC(NC(=O)C(Cc2ccccc2)NC(=O)CNC(=O)CNC(=O)CNC(=O)C(CC(=O)O)NC(=O)[C@@H](CC(=O)O)NC(=O)C(CNC(=O)CN2CCN(CC(=O)O)CCN(CC(=O)O)CCN(CC(=O)O)CC2)NC(=O)[C@@H](CN)NC(=O)CNC(=O)C[N+](C)(C)Cc2ccc([Si](F)(C(C)(C)C)C(C)(C)C)cc2)C(=O)N[C@@H](Cc2ccc(O)cc2)C(=O)NC(Cc2c[nH]c3ccccc23)C(=O)N[C@@H](CCCCN)C(=O)N[C@@H]([C@@H](C)O)C(=O)N1)C(=O)O (stereo partly drawn) [[Ga]52]
HSA [1]: 7.82 kDa
LogDpH=7.4 [2]: −2.00 ± 0.02

Source: patent US20240317780A1, “RADIOPHARMACEUTICAL SOMATOSTATIN RECEPTOR LIGANDS AND PRECURSORS THEREOF” (Technische Universität München, priority 2021, published 2024)
